Experimental data taken from PubChem BioAssay (NCI).
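Grown in 96-well plates, cells were treated for 48 hours with each compound at five concentrations. Insufficient inhibition: endpoint recorded as highest concentration tested. Here, GI50 denotes the concentration required for 50% inhibition of growth. TGI marks complete inhibition of growth.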

Key:
Experiment in all cases: NCI tumour cell line growth inhibition, 48 h
[1] = system: SK-OV-3 ovarian
[2] = system: HOP-62 NSCLC
[3] = system: LXFL 529 NSCLC
[4] = system: DMS 273 small cell lung
[5] = system: RXF 393 renal
[6] = system: IGROV1 ovarian
[7] = system: UO-31 renal
[8] = system: EKVX NSCLC
[9] = system: HT29 colon
[10] = system: U251 CNS
[11] = system: XF 498 CNS
[12] = system: MDA-MB-435

| SMILES | TGI [1] | TGI [2] | TGI [3] | TGI [4] | TGI [5] | TGI [6] | TGI [7] | TGI [8] | TGI [9] | TGI [10] | TGI [11] | TGI [12] | GI50 [5] |
| --- | --- | --- | --- | --- | --- | --- | --- | --- | --- | --- | --- | --- | --- |
| c1c(N2CCOCC2)ssc1=[N+]1CCOCC1 | > 100 µM | > 100 µM | > 100 µM | > 100 µM | > 100 µM | > 100 µM | > 100 µM | > 100 µM | > 100 µM | > 100 µM |  |  |  |
| CC(=O)OC1CC2(O)C(CCC3(C)C(c4ccc(=O)oc4)CCC32O)C2(C)C1=CC(O)C1OC12 (stereo unspecified) | 0.252 µM | 0.172 µM |  | 0.135 µM | 0.0324 µM | 0.753 µM | 0.323 µM | 0.157 µM | 2.89 µM | 0.281 µM | 0.201 µM |  |  |
| CCCO/N=[N+](\[O-])N(CC)CC | > 100 µM | > 100 µM | > 100 µM | > 100 µM | > 100 µM | > 100 µM | > 100 µM | > 100 µM | > 100 µM | > 100 µM | > 100 µM |  |  |
| COc1ccc(OC)c(NC(=O)C(=O)C(C(=O)c2ccccc2F)C2OC(=O)c3ccccc32)c1 (stereo unspecified) | > 100 µM | > 100 µM | > 100 µM | > 100 µM | 70.7 µM | > 100 µM | > 100 µM | > 100 µM | > 100 µM | 49.5 µM | > 100 µM |  |  |
| CCOc1ccc(N=Nc2ccc3cc(/C(C)=N/NC(=O)/C(C#N)=C\c4ccc(N(CCC#N)CCC#N)cc4)c(=O)oc3c2)cc1 | > 10 µM | > 10 µM |  |  | > 10 µM | > 10 µM | > 10 µM | > 10 µM | > 10 µM | > 10 µM |  | > 10 µM |  |
| CCOC(=O)Cn1nnc2cc(Nc3c(C)[n+]([O-])c4cc(F)c(OCC)cc4[n+]3[O-])ccc21 | > 100 µM | 89.5 µM |  |  | > 100 µM | > 100 µM | > 100 µM | > 100 µM | > 100 µM | > 100 µM |  | > 100 µM |  |
| Cc1cnc2[nH]c(-c3cccc(F)c3)cc(=O)c2c1 | > 100 µM | > 100 µM |  |  | > 100 µM | > 100 µM | > 100 µM | > 100 µM | 0.806 µM | > 100 µM |  | 0.0228 µM |  |
| CN(C)CCNc1c([N+](=O)[O-])sc2ccc(Cl)cc12 | > 100 µM | > 100 µM |  |  | 82.8 µM | > 100 µM | > 100 µM | > 100 µM | > 100 µM | 78.3 µM |  | > 100 µM |  |
| COc1cc2c3c(cc(Cl)nc3c1OC)C(=O)C(=O)N2 | 33.3 µM | 34.7 µM |  |  | 27.5 µM | 25.1 µM | 26.7 µM | 11.9 µM | 41.4 µM | 30.3 µM |  | 3.37 µM |  |
| CC1CCc2sc3nc4n(c(=O)c3c2C1)CC(C)S4 (stereo unspecified) | 96.3 µM | > 100 µM |  |  | 55.2 µM | > 100 µM | 7.51 µM | 70.4 µM | 33.4 µM | > 100 µM |  | > 100 µM |  |
| N#C/C(=C\c1cccc(Br)c1)c1nc2ccccc2c(=O)[nH]1 | > 100 µM | 62.7 µM |  |  | > 100 µM | > 100 µM | > 100 µM | > 100 µM | > 100 µM | > 100 µM |  | > 100 µM |  |
| COCC#C[C@@]1(O)CCCCC1CC(OC)OC (stereo partly specified) | > 100 µM | > 100 µM |  |  | > 100 µM | > 100 µM | > 100 µM | > 100 µM | > 100 µM | > 100 µM |  | > 100 µM |  |
| C=C1C[C@@H]2CC[C@@]34C[C@H]5O[C@H]6[C@@H](O3)[C@H]3O[C@H](CC[C@@H]3O[C@H]6[C@H]5O4)CC(=O)C[C@@H]3[C@@H](OC)[C@@H](C[C@H](O)CN)O[C@H]3C[C@H]3O[C@@H](CC[C@@H]1O2)C[C@@H](C)C3=C | 0.286 µM | > 1 µM |  |  |  | > 0.253 µM | > 1 µM | 0.273 µM | 0.0133 µM | > 0.199 µM |  | 0.000274 µM | 0.00255 µM |
| O=C1N/N=C\c2ccc(cc2)OCc2cccc(n2)COc2ccc(cc2)/C=N\NC1=O | > 25 µM | > 25 µM |  |  | > 25 µM | > 25 µM | > 25 µM | > 25 µM | > 25 µM | > 25 µM |  | > 25 µM |  |
| O=C(/C=C\Nc1ccccc1O)C(F)(F)F | > 100 µM | > 100 µM |  |  | > 100 µM | > 100 µM | > 100 µM | > 100 µM | > 100 µM | > 100 µM |  | > 100 µM |  |
